Laboratory results as given in EP2948433B1, “ATGLISTATIN AS LIPASE INHIBITOR” (Technische Universität Graz, priority 2013, dated 2014).
Marks after values point to notes of the source that are not given here.

Assays:
[1] = tested on: TG hydrolase activity in lysates obtained from ATGL-ko animals; assay: TG hydrolase activity in WAT lysates of ATGL-ko mice; assay type: biochemical; conditions: at concentrations ≥ 20 µM
Procedure: (§1) • Figure 1. Structure of compounds 1 to 3 (reference) and compound 4 (atglistatin) and effect on ATGL activity. For determination of lipase activity, lysates of E. coli overexpressing recombinant strep-tagged ATGL and CGI-58 were incubated with a substrate containing radiolabeled [9,10-3H(N)]-triolein. Subsequently, FA were extracted and quantified by liquid scintillation counting. Lysates of cells expressing empty vector were set as blank. Inhibitors were solubilized in DMSO and added at the indicated concentrations. DMSO alone was used as negative control. (A) Structure and IC50 values of compounds 1-4. (B) Dose-dependent inhibition of ATGL in the presence of compound 3 and 4. […] (C) Lineweaver-Burk plots for kinetic analysis of ATGL inhibition. Experiments were performed at varying concentrations of substrate (0.05 - 3 mM) in presence and absence of compound 4 (Atglistatin). […] Lipase activity of ATGL, HSL, lipoprotein lipase, and pancreatic lipase was determined using triolein as substrate. MGL activity was detected in the presence of rac-(1,3)-monooleoylglycerol as substrate. […] The release of FA (A) and glycerol (B) in the media was determined using commercial kits. […] At the indicated timepoints blood was taken retroorbitally and plasma parameters were measured using commercial kits. […] 8 h after gavage blood was taken retroorbitally and plasma parameters were measured using commercial kits. […]

[2] = Inhibition of lipolysis in vivo, oral gavage in fasted mice, plasma parameters; parameters: species or system C57BI/6J mice
Procedure: (§2) • Figure 1. Structure of compounds 1 to 3 (reference) and compound 4 (atglistatin) and effect on ATGL activity. For determination of lipase activity, lysates of E. coli overexpressing recombinant strep-tagged ATGL and CGI-58 were incubated with a substrate containing radiolabeled [9,10-3H(N)]-triolein. Subsequently, FA were extracted and quantified by liquid scintillation counting. Lysates of cells expressing empty vector were set as blank. Inhibitors were solubilized in DMSO and added at the indicated concentrations. DMSO alone was used as negative control. (A) Structure and IC50 values of compounds 1-4. (B) Dose-dependent inhibition of ATGL in the presence of compound 3 and 4. […] (C) Lineweaver-Burk plots for kinetic analysis of ATGL inhibition. Experiments were performed at varying concentrations of substrate (0.05 - 3 mM) in presence and absence of compound 4 (Atglistatin). […] Data are presented as mean +/-S.D. of triplicate determinations. Data for compound 4 are representative for at least three independent experiments. • Figure 2. Selectivity of Atglistatin. Lipase activity of ATGL, HSL, lipoprotein lipase, and pancreatic lipase was determined using triolein as substrate. MGL activity was detected in the presence of rac-(1,3)-monooleoylglycerol as substrate. Inhibitors were solubilized in DMSO and added at the indicated concentrations. DMSO alone was used as negative control. (A) Dose-dependent inhibition of TG hydrolase activity in WAT lysates obtained from wild-type and ATGL-ko mice. (B) Inhibition of TG hydrolase activity in wild-type WAT lysates by Atglistatin (40 µM) and by the HSL inhibitor Hi 76-0079 (20 µM). (C) Effect of Atglistatin on murine MGL (purified from E. coli), and murine HSL (overexpressed in COS-7 lysates) activity. (D) Effect of Atglistatin on purified bovine LPL (Sigma) and pancreatic lipase (from porcine pancreas, Sigma). Data are presented as mean +/- S.D. of triplicate determinations and are representative for at least three independent experiments (p < 0.05 **, p < 0.01; ***, p < 0.001). • Figure 3 Inhibition of lipolysis in 3T3-L1 adipocytes and WAT organ cultures. (A,B) Differentiated 3T3 cells were preincubated with the indicated concentrations of Atglistatin. Thereafter, the medium was replaced by DMEM containing 2% BSA (fatty acid free), 10 µM forskolin, in the presence or absence of inhibitors. The release of FA (A) and glycerol (B) in the media was determined using commercial kits. Basal FA and glycerol release (not shown) was barely detectable under the applied conditions. Data are presented as mean +/- SD and are representative for 2 independent experiments. (C-F) Effect of Atglistatin on WAT basal (C, D) and forskolin-stimulated (E, F) lipolysis. Adipose tissue pieces (∼15 mg, n=5 for each concentration) of wild-type mice were cultured for 8 h in DMEM containing 2 % FA-free BSA and the indicated concentrations of Atglistatin. Subsequently, the medium was replaced by identical fresh medium and samples were collected after incubation for another hour in the presence or in the absence of 10 µM forskolin. Atglistatin was solubilized in DMSO and DMSO alone was used as negative control. Data are presented as mean +/- S.D. (*, p < 0.05 **, p < 0.01; ***, p < 0.001). • Figure 4 Inhibition of lipolysis in vivo. (A,B) Time dependent effect of Atglistatin on plasma free fatty acids (FFA) and glycerol levels of mice. C57BI6 mice were fasted overnight (ON) and received an oral gavage containing 100 µmol/kg Atglistatin dissolved in olive oil, or olive oil as control. At the indicated timepoints blood was taken retroorbitally and plasma parameters were measured using commercial kits. (C,D) Dose dependent effect of Atglistatin on plasma FFA and glycerol levels of mice. C57BI6 mice were fasted ON and received an oral gavage containing 0, 50, 100, or 200 µmol/kg Atglistatin dissolved in olive oil, or olive oil as control. 8 h after gavage blood was taken retroorbitally and plasma parameters were measured using commercial kits. […]

pancreatic lipase = target: T1, pancreatic lipase (Sus scrofa, UniProt P00591); assay: Pancreatic lipase activity, triolein substrate; assay type: biochemical, porcine; conditions: Fig. 2D
T1 construct: pancreatic lipase (from porcine pancreas, Sigma); purchased Sigma; host or cells: porcine pancreas
T1 sequence (P00591 1-450): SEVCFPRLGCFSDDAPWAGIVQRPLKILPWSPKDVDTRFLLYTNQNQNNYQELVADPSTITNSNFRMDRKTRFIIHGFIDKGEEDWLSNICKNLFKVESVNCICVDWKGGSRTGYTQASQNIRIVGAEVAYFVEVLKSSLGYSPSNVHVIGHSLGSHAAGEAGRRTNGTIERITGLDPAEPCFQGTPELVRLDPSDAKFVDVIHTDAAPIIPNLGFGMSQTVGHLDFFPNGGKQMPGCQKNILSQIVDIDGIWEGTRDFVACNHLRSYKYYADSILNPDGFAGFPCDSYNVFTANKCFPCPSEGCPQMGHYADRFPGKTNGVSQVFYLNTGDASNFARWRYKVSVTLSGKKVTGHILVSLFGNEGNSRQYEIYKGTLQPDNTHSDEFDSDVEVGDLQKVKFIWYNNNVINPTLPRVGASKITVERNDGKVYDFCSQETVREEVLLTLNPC
Procedure: as §1

recombinant ATGL = target: T2, recombinant ATGL (Mus musculus, UniProt Q8BJ56); assay: TG hydrolase activity of E. coli lysates overexpressing recombinant strep-tagged ATGL and CGI-58, radiolabeled triolein substrate; assay type: biochemical
T2 construct: Strep-tag; made in house; host or cells: E. coli (XL-1), vector pASK-IBA5+; crude lysate supernatant, not purified
T2 sequence (Q8BJ56 1-486): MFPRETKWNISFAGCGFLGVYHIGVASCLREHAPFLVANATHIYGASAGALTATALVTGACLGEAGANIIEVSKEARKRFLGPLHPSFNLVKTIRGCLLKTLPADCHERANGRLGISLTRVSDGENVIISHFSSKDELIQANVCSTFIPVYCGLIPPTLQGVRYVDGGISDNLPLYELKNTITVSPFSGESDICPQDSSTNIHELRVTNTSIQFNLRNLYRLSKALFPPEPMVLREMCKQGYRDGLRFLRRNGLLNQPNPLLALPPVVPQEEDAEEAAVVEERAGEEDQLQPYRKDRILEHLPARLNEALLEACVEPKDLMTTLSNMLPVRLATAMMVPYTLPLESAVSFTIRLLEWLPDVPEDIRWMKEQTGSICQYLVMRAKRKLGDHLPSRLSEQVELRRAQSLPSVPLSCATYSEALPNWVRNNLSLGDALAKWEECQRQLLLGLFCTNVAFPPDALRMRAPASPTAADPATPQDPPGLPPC
Procedure: as §2, with “(A,B) Time dependent effect of Atglistatin on plasma free fatty acids (FFA) and glycerol levels of mice. C57BI6 mice were fasted overnight (ON) and received an oral gavage containing 100 µmol/kg Atglistatin dissolved in olive oil, or olive oil as control.” left out, “(C,D) Dose dependent effect of Atglistatin on plasma FFA and glycerol levels of mice. C57BI6 mice were fasted ON and received an oral gavage containing 0, 50, 100, or 200 µmol/kg Atglistatin dissolved in olive oil, or olive oil as control.” left out

WAT organ cultures = assay: Lipolysis of isolated WAT organ cultures; assay type: cell-based, C57BI6 mice; conditions: 8 h incubation
Procedure: • Figure 1. Structure of compounds 1 to 3 (reference) and compound 4 (atglistatin) and effect on ATGL activity. For determination of lipase activity, lysates of E. coli overexpressing recombinant strep-tagged ATGL and CGI-58 were incubated with a substrate containing radiolabeled [9,10-3H(N)]-triolein. Subsequently, FA were extracted and quantified by liquid scintillation counting. Lysates of cells expressing empty vector were set as blank. Inhibitors were solubilized in DMSO and added at the indicated concentrations. DMSO alone was used as negative control. (A) Structure and IC50 values of compounds 1-4. (B) Dose-dependent inhibition of ATGL in the presence of compound 3 and 4. […] (C) Lineweaver-Burk plots for kinetic analysis of ATGL inhibition. Experiments were performed at varying concentrations of substrate (0.05 - 3 mM) in presence and absence of compound 4 (Atglistatin). […] Data are presented as mean +/-S.D. of triplicate determinations. Data for compound 4 are representative for at least three independent experiments. • Figure 2. Selectivity of Atglistatin. Lipase activity of ATGL, HSL, lipoprotein lipase, and pancreatic lipase was determined using triolein as substrate. MGL activity was detected in the presence of rac-(1,3)-monooleoylglycerol as substrate. Inhibitors were solubilized in DMSO and added at the indicated concentrations. DMSO alone was used as negative control. (A) Dose-dependent inhibition of TG hydrolase activity in WAT lysates obtained from wild-type and ATGL-ko mice. (B) Inhibition of TG hydrolase activity in wild-type WAT lysates by Atglistatin (40 µM) and by the HSL inhibitor Hi 76-0079 (20 µM). (C) Effect of Atglistatin on murine MGL (purified from E. coli), and murine HSL (overexpressed in COS-7 lysates) activity. […] The release of FA (A) and glycerol (B) in the media was determined using commercial kits. […] At the indicated timepoints blood was taken retroorbitally and plasma parameters were measured using commercial kits. […] 8 h after gavage blood was taken retroorbitally and plasma parameters were measured using commercial kits. […]

[3] = plasma, 200 µmol/kg oral gavage, after 8 h, mean ± S.D., n = 7
[4] = up to, 50, 100 or 200 µmol/kg oral gavage, 8 h after gavage

CN(C)C(=O)Nc1cccc(-c2ccc(N(C)C)cc2)c1 [Atglistatin, atglistatin]
effect on the residual TG hydrolase activity in ATGL-ko lysates [1]: moderate but significant effect
plasma levels for glycerol, time course ([2]; 100 µmol/kg oral gavage in olive oil, between 4 h and 8 h after gavage): time dependent decrease
plasma levels for FA, time course ([2]; 100 µmol/kg oral gavage in olive oil, between 4 h and 12 h after gavage): time dependent decrease
FFA [2, 3]: 0.53 ± 0.05*** mmol/L
Triglycerides [2, 3]: 0.33 ± 0.14** mmol/L
dose-dependent decrease in plasma FA levels [2, 4]: up to 50%
dose-dependent decrease in plasma glycerol levels [2, 4]: ≤ 70%
effect on pancreatic lipase (pancreatic lipase): only minor effects
Ki (recombinant ATGL): 500 ± 200 nM
mechanism of ATGL inhibition (recombinant ATGL; increase in apparent Km, unchanged Vmax, substrate 0.05 - 3 mM): competitive inhibitor
IC50 (recombinant ATGL; inhibition of the activity of recombinant ATGL): 700 nM
basal lipolysis (WAT organ cultures; dose dependent (0-50 µM)): reduced basal lipolysis
reduction of forskolin-stimulated FA release (WAT organ cultures; up to, 10 µM forskolin): up to 72%
reduction of forskolin-stimulated glycerol release (WAT organ cultures; up to, 10 µM forskolin): ≤ 66%
